Data as given in patent US20250282746A1, “HALOGEN-SUBSTITUTED ISOINDOLINE COMPOUND AND USE THEREOF” (CHENGDU FENDI PHARMACEUTICAL CO., LTD., priority 2022, published 2025).
“Also recorded” adds a separate entry of the source.

Key:
NCI-H929 cells [1] = assay: Antiproliferative effect alone and in combination with dexamethasone against NCI-H929 cells; assay type: cell-based; conditions: 72 h, read-out: IC50
Description: (§1) MOLM-13 cells in the logarithmic growth phase were diluted in a medium RPMI+[…], and NCI-H929 cells were diluted in a medium RPMI+10% FBS. The cells were plated at 4,000 cells/well in 96-well whole black plates (WHB) with 50 μL/well. After plating, the plates were incubated in an incubator at 5% CO2 and 37° C. for 24 h before the compounds were added. The compounds were prepared into a 10 mM stock solution in DMSO and diluted in a culture medium to the desired concentrations (a final DMSO concentration of 0.2%). 50 μL of the compound dilutions at final concentrations of 10,000, 3,333.33, 1,111.11, 370.37, 123.46, 41.15, 13.72, 4.57, 1.52, and 0 nM were added to the 96-well plates containing the cells, that is, each compound was serially diluted to 10 concentrations in duplicate. The plates were incubated at 5% CO2 and 37° C. for 72 h. When pharmaceutical partners were used, the concentrations of azacitidine and dexamethasone were kept at 200 nM and 500 nM respectively, and the compounds were serially three-fold diluted from 10,000 nM. After the incubation was complete, the plates were equilibrated at room temperature for 30 min. CellTiter-Glo® Reagent (Promega G7573) was added at 100 μL/well. The plates were shaken for 12 min on a microplate shaker. The luminescence value was measured at room temperature by the GloMax navigator (Promega GM2010). The IC50 values were calculated using the GraphPad Prism 7 software with the 0 nM control group as 0% inhibition.

MOLM-13 cells [2] = assay: Antiproliferative effect alone and in combination with azacitidine against MOLM-13 cells; assay type: cell-based; conditions: for IC50: MOLM-13 cells, 72 h
Description: as §1

hERG potassium channel = molecular target: T1, hERG potassium channel (Homo sapiens, UniProt Q12809); assay: hERG inhibition assay (automated patch clamp, HEK293); assay type: cell-based; conditions: 3 μM, HEK293 cells, QPatch
T1 construct: expressed in transfected cells; host or cells: HEK293 cells
Text: The rapidly activating potassium channel encoded by human ether-a-go-go-related gene (hERG) is an important ion channel involved in the formation of cardiac action potential phase 3 repolarization. Blocking of the hERG channel by drugs can lead to the prolongation of cardiac repolarization and thus a prolonged QT interval in the electrocardiogram, known as long QT syndrome. Drug-induced delayed ventricular repolarization may in some cases trigger fatal arrhythmia-torsade de pointes-type ventricular tachycardia.
This assay was used to measure the effect of compounds on the hERG potassium channel clones expressed in human embryonic kidney (HEK293) cells. The assay procedures are as follows: the cells were transferred into a HEPES-buffered saline in glass-lined 96-well plates and exposed to an appropriate amount of test compound or control solution at various concentrations for 3 min. The test compounds were diluted in 0.3% DMSO.

MV-4-11-Luc xenograft = assay: Efficacy in acute myeloid leukemia MV-4-11-luc xenograft mouse model; assay type: in vivo; conditions: for T/C (%) Day 3 / T/C (%) Day 7 / T/C (%) Day 10 / T/C (%) Day 14: 10 mg/kg orally twice daily, NSG mice
Text: In an in vivo efficacy study, female immunocompromised NSG mice aged 6 to 8 weeks were used and the experimental procedures started after the animals were acclimatized in the experimental environment for 7 days. The animals were housed in SPF animal rooms in individually ventilated cages (IVCs) each containing 6 mice. Human acute myeloid leukemia MV-4-11 cells expressing luciferase (MV-4-11-luc) were grafted into mice by tail vein injection (5×10^6 cells/mouse). Seven days after the cell grafting, the mice were subjected to imaging on the IVIS Lumina III small animal imaging system for grouping and administration, and tumor-bearing mice were randomized to the vehicle control group or treatment groups (6 mice/group). The compound (10 mg/kg, twice daily) was administered to the animals in each treatment group by oral gavage. The body weight was measured daily, while mean luminescence was measured after the start of treatment with the compounds or vehicle.
Indicators: The indicators were to investigate whether the tumor growth was inhibited or delayed or the tumor was cured. The tumor size was measured twice weekly using the IVIS Lumina III small animal imaging system. The tumor signals were determined by exposure photons per second. The anti-tumor efficacy of the compounds was evaluated by the tumor proliferation rate T/C (%). T/C %=TRTV/CRTV×100% (TRTV: the RTV of the treatment group; CRTV: the RTV of negative control group; RTV=Vt/V0, where V0 is the tumor signal measured at the time of grouping and administration (i.e., day 0), and Vt is the tumor signal at every measurement). According to the guidelines of the Center for Drug Evaluation, NMPA, a T/C (%) of >40% denotes the absence of efficacy, while a T/C of <40% with P<0.05 denotes the presence of efficacy.

U937 cells = assay: Antiproliferative activity against various tumor cells: U937; assay type: cell-based; conditions: Homo sapiens, U-937; U937 cells, 72 h; read-out: Antiproliferative activity IC50 U937
Description: (§2) U937, NCI-H929, AML-2, and MOLM-13 cells in the logarithmic growth phase were diluted in media RPMI+10% FBS, RPMI+10% FBS, MEMα+20% FBS, RPMI+20% FBS, respectively, and plated at 4,000 cells/well in 96-well whole black plates (WHB) with 50 μL/well. After plating, the plates were incubated in an incubator at 5% CO2 and 37° C. for 24 h before the compounds were added. The compounds were prepared into a 10 mM stock solution in DMSO and diluted in a culture medium to the desired concentrations (a final DMSO concentration of 0.2%). […] The plates were incubated at 5% CO2 and 37° C. for 72 h. After the incubation was complete, the plates were equilibrated at room temperature for 30 min. CellTiter-Glo® Reagent (Promega G7573) was added at 100 μL/well. The plates were shaken for 12 min on a microplate shaker. The luminescence value was measured at room temperature by the GloMax navigator (Promega GM2010).

GSPT1 protein = molecular target: T2, GSPT1 protein (Homo sapiens, UniProt P15170); assay: Degradation of GSPT1 protein in NB-4 cells (Western blot); assay type: cell-based; conditions: NB-4 cells, compound 1 μM, 6 h; read-out: GSPT1 degradation
T2 construct: The whole cell lysate was prepared using a RIPA lysis buffer; endogenous in cells; host or cells: NB-4 cells
How it was run: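 GSPT1 levels were read by Western blot (4-20% SDS-PAGE, PVDF, overnight primary antibody at 4 °C) on lysates of NB-4 cells.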

AML-2 cells = assay: Antiproliferative activity against various tumor cells: AML-2; assay type: cell-based; conditions: AML-2 cells, 72 h; read-out: Antiproliferative activity IC50 AML-2
Description: as §2

MOLM-13 cells [3] = assay: Antiproliferative activity against various tumor cells: MOLM-13; assay type: cell-based; conditions: Homo sapiens; MOLM-13 cells, 72 h; read-out: Antiproliferative activity IC50 MOLM-13
Description: as §2

MV-4-11 cells [4] = assay: Apoptotic effect on AML cells (annexin/PI flow cytometry); assay type: cell-based, human; conditions: 1 μM and 100 nM
Description: MV-4-11 cells in the logarithmic growth phase were diluted in a growth medium and plated at 600,000 cells/well in 6-well plates with 2 mL/well and the compounds were added. The cells were collected, washed twice with pre-cooled PBS, and resuspended in 100 μL of 1× annexin-binding buffer. 5 μL of FITC and 1 μL of 100 µg/mL PI were added. The cells were incubated at room temperature in the dark for 15 min and transferred on ice, and 400 μL of 1× annexin-binding buffer was added. The mixture was gently mixed and subjected to flow cytometry.

MV-4-11 cells [5] = assay: Antiproliferative activity against MV-4-11 cells (CellTiter-Glo, 72 h); assay type: cell-based; conditions: Homo sapiens, MV4-11; MV-4-11 cells, 72 h; read-out: Antiproliferative activity IC50
How it was run: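 MV-4-11 cells in RPMI + 10% FBS plated at 5,000 cells/well and pre-incubated 24 h at 37 °C, 5% CO2. Compounds were then added (final DMSO 0.2%) and cells incubated 72 h. Viability was read by CellTiter-Glo luminescence after 30 min equilibration at room temperature.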

NCI-H929 cells [6] = assay: Antiproliferative activity against various tumor cells: NCI-H929; assay type: cell-based; conditions: Homo sapiens; NCI-H929 cells, 72 h; read-out: Antiproliferative activity IC50 NCI-H929
Description: as §2

CK1α = molecular target: T3, CK1α (Homo sapiens, UniProt P48729); assay: Degradation of CK1α protein in HL-60 cells (Western blot); assay type: cell-based; conditions: 4 h
T3 construct: The whole cell lysate was prepared using a RIPA lysis buffer; endogenous in cells; host or cells: HL-60 cells
Description: (§3) […] of DMSO and the compounds were added, and the mixture was incubated in an incubator at 5% CO2 and 37° C. for 4 h. The cells were centrifuged, and the culture medium was discarded. PBS was added for washing and then discarded. The whole cell lysate was prepared using a RIPA lysis buffer containing a protease inhibitor cocktail and a phosphatase inhibitor, and incubated on ice for 30 min. The mixture was centrifuged, and the cell debris was discarded. The whole cell lysate supernatant was collected and transferred to a fresh EP tube. Samples were prepared using a loading buffer after a BCA protein assay. The samples were incubated in a metal bath at 100° C. for 10 min. The samples were electrophoretically separated from proteins on a 4-20% precast gel (SDS-PAGE gel), transferred to a PVDF membrane, blocked with 5% NFDM/TBST for 1 h at room temperature, co-incubated overnight at 4° C. with the primary antibody, and co-incubated for 2 h at room temperature with the secondary antibody on the next day. The signals were detected on the […]™ imaging system.

c-Myc = molecular target: T4, c-Myc (Homo sapiens, UniProt P01106); assay: Degradation of c-MYC protein in HL-60 cells (Western blot); assay type: cell-based; conditions: 4 h
T4 construct: The whole cell lysate was prepared using a RIPA lysis buffer; endogenous in cells; host or cells: HL-60 cells
Description: as §3

[7] = in combination with 500 nM dexamethasone

T3 sequence (P48729 whole entry): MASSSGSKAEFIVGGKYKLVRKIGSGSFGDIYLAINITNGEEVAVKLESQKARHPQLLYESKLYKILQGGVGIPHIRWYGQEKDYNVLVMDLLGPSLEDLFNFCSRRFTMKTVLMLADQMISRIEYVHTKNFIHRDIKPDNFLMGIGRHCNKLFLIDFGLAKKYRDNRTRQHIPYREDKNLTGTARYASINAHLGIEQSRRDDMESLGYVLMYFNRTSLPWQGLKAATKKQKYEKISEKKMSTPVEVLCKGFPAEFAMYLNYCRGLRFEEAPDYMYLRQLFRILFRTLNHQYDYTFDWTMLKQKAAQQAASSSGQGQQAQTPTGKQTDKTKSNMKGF
T4 sequence (P01106 whole entry): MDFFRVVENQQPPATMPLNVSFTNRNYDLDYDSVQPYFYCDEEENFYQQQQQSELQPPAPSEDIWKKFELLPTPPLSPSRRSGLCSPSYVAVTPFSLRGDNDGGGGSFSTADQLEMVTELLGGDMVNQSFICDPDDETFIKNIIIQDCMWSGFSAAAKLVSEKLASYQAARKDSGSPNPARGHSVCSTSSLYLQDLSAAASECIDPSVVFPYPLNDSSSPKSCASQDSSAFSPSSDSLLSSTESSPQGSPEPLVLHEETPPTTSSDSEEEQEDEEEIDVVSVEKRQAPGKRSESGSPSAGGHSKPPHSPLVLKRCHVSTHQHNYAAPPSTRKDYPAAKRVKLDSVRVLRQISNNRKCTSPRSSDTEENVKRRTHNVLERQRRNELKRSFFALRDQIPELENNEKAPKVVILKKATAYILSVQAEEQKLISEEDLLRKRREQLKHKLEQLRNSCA
T2 sequence (P15170 whole entry): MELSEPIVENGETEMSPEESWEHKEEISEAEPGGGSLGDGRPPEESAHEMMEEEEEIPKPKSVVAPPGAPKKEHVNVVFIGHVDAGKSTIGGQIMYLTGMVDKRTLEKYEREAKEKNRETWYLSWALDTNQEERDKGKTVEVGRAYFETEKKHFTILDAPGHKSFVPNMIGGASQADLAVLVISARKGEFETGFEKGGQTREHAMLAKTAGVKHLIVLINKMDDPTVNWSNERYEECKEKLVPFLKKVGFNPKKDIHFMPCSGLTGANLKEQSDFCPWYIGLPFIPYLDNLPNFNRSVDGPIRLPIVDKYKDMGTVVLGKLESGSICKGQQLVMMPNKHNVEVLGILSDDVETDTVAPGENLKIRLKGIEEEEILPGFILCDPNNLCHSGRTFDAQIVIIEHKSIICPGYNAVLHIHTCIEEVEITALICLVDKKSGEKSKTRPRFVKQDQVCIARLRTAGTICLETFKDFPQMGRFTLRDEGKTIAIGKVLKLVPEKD
T1 sequence (Q12809 whole entry): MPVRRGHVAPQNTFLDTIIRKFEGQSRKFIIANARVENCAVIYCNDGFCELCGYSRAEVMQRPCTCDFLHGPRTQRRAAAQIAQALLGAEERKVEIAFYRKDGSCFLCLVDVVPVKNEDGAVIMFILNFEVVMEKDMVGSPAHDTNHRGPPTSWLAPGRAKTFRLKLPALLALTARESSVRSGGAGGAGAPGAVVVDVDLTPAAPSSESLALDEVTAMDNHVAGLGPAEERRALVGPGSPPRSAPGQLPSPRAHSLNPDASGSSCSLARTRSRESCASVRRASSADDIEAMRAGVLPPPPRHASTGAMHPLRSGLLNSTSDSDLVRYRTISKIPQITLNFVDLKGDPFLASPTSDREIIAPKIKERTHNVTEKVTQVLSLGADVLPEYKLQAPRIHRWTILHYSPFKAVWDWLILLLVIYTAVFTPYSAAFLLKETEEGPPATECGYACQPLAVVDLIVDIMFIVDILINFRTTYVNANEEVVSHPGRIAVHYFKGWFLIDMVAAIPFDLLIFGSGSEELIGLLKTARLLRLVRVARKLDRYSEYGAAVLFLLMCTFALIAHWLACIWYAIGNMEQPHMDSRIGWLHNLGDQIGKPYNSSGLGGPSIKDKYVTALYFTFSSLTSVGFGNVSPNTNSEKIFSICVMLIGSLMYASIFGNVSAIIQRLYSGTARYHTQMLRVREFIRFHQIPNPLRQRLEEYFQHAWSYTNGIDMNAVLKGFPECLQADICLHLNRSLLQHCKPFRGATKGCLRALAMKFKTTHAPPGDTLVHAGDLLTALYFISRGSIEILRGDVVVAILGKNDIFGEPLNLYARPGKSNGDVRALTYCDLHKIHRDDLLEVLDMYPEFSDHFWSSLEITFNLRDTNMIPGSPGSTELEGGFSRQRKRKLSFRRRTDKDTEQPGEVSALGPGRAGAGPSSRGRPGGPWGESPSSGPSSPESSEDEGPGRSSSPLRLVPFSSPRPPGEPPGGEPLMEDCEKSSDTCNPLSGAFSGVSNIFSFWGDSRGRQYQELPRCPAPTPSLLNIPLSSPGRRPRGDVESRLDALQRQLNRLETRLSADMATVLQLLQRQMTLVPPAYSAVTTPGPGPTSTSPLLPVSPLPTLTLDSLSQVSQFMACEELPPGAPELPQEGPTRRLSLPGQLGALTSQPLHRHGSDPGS

Nc1cccc2c1C(=O)N(C1CCC(=O)NC1=O)C2=O (stereo not shown) [Pomalidomide]
IC50 (NCI-H929 cells [1]; [7]): 22.2 nM
IC50 (NCI-H929 cells [1]; Homo sapiens, compound alone): 243 nM

O=C1CCC(N2Cc3cc(CNC(=O)C(F)(F)c4ccc(Cl)cc4)ccc3C2=O)C(=O)N1 (stereo not shown) [CC-90009, reference compound]
IC50 (MOLM-13 cells [2]; compound alone): 1420 nM
IC50 (MOLM-13 cells [2]; in combination with 200 nM azacitidine): 43.9 nM
hERG inhibition rate (hERG potassium channel): 66%
T/C (%) Day 3 (MV-4-11-Luc xenograft): 100.80%
T/C (%) Day 7 (MV-4-11-Luc xenograft): 133.08%
T/C (%) Day 10 (MV-4-11-Luc xenograft): 127.05%
T/C (%) Day 14 (MV-4-11-Luc xenograft): 132.90%
tumor inhibitory effect in mouse xenograft model (MV-4-11-Luc xenograft; oral administration, 10 mg/kg twice daily, within 14 days, 10 mg/kg): no tumor inhibitory effects; also recorded: no tumor inhibitory activity
IC50 (NCI-H929 cells [1]; compound alone): 3200 nM
IC50 (NCI-H929 cells [1]; [7]): 77.3 nM

C[C@@H]1C[C@H]2[C@@H]3CCC4=CC(=O)C=C[C@]4(C)[C@@]3(F)[C@@H](O)C[C@]2(C)[C@@]1(O)C(=O)CO [Dexamethasone]
IC50 (NCI-H929 cells [1]; Homo sapiens, compound alone): > 10000 nM

Nc1cccc2c1CN(C1CCC(=O)NC1=O)C2=O (stereo not shown) [Lenalidomide]
IC50 (NCI-H929 cells [1]; [7]): 774 nM
IC50 (NCI-H929 cells [1]; Homo sapiens, compound alone): 2180 nM

Nc1ncn([C@@H]2O[C@H](CO)[C@@H](O)[C@H]2O)c(=O)n1 [Azacitidine, reference compound]
antiproliferative activity against MOLM-13 cells at fixed concentration (MOLM-13 cells [2]; 200 nM): no significant antiproliferative activity
IC50 (MOLM-13 cells [2]; Homo sapiens, compound alone): 751 nM

O=C1CCC(N2Cc3c(ccc(CNC(=O)c4cc5cc(F)ccc5o4)c3F)C2=O)C(=O)N1 (stereo not shown) [FDAB-46]
IC50 (U937 cells): 10 to 100 nM
inhibition at 1 µM (GSPT1 protein): > 80%
IC50 (AML-2 cells): 100 to 1000 nM
IC50 (MOLM-13 cells [3]): 100 to 1000 nM
apoptotic effect on MV-4-11 cells (MV-4-11 cells [4]; treated for 7 h, 10 µM): no apoptotic effect
apoptotic effect on MV-4-11 cells (MV-4-11 cells [4]; treated for 16 h): apoptosis was induced
IC50 (MV-4-11 cells [5]): 1 to 10 nM
IC50 (NCI-H929 cells [6]): 1 to 10 nM

CCCCCCCCCCCCSC(=S)SC(C)(C#N)CCC(=O)NCc1ccc2c(c1F)CN(C1CCC(=O)NC1=O)C2=O (stereo not shown) [FDAB-164]
inhibition at 1 µM (GSPT1 protein): > 80%
CK1α degradation (CK1α; 10 nM): D (D denotes a percentage of degradation less than 25%)
CK1α degradation (CK1α; 100 nM): C (C denotes a percentage of degradation less than 500% but not less than 250%)
CK1α degradation (CK1α; 1000 nM): C (C denotes a percentage of degradation less than 500% but not less than 250%)
IC50 (MV-4-11 cells [5]): < 1 nM
c-Myc degradation (c-Myc; 10 nM): D (D denotes a percentage of degradation less than 25%)
c-Myc degradation (c-Myc; 100 nM): C (C denotes a percentage of degradation less than 500% but not less than 250%)
c-Myc degradation (c-Myc; 1000 nM): C (C denotes a percentage of degradation less than 500% but not less than 250%)

Cc1ccc(C(=O)NCc2ccc3c(c2F)CN(C2CCC(=O)NC2=O)C3=O)cc1F (stereo not shown) [FDAB-120]
inhibition at 1 µM (GSPT1 protein): > 80%
hERG inhibition rate (hERG potassium channel): 13%
T/C (%) Day 3 (MV-4-11-Luc xenograft): 6.69%
T/C (%) Day 7 (MV-4-11-Luc xenograft): 1.58%
T/C (%) Day 10 (MV-4-11-Luc xenograft): 2.00%
T/C (%) Day 14 (MV-4-11-Luc xenograft): 2.12%
IC50 (MV-4-11 cells [5]): 10 to 100 nM
